Measurements taken from patent publication US8846698B2, “Pyrrolo[2,3-d]pyrimidine tropomysin-related kinase inhibitors” (Pfizer Limited, priority 2011, dated 2014).
Structures can show the parent of a compound that is named as a salt.

Molecular target: TRKA (Homo sapiens (Human), UniProt P04629)
Experiment: Isolated TRK enzyme assay (HTRF KinEASE-TK), TRKA
Format: biochemical
Details: read-out: Trka enzyme (IC50)

Chain of TRKA (P04629 441-796): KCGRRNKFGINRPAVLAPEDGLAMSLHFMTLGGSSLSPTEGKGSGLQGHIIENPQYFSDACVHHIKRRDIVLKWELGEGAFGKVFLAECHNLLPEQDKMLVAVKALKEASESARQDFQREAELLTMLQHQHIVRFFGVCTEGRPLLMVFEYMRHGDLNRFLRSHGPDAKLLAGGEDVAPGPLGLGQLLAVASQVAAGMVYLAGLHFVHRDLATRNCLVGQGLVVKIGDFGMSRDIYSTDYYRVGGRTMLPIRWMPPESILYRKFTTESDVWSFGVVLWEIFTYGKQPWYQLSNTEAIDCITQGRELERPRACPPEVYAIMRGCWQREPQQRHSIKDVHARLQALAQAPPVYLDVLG

**Q.** How did the IC50 turn out when `CC(C)n1cc(C(=O)c2cncc(NC(=O)c3cn(C)nc3C(F)(F)F)c2)c2cncnc21` [Example 405, 1-Methyl-3-trifluoromethyl-1H-pyrazole-4-carboxylic acid [5-(7-isopropyl-7H-pyrrolo[2,3-d]pyrimidine-5-carbonyl)-pyridin-3-yl]-amide] was run?
**A.** 1630 nM

**Q.** `CCc1cc(C(=O)Nc2cncc(C(=O)c3cn(C(C)C)c4ncncc34)c2)on1` [Example 408, 3-Ethyl-isoxazole-5-carboxylic acid[5-(7-isopropyl-7H-pyrrolo[2,3-d]pyrimidine-5-carbonyl)-pyridin-3-yl]-amide] was tested. Which IC50 did it give?
**A.** 654 nM

**Q.** Which IC50 does the source give for `Cc1cc(C(=O)Nc2cncc(C(=O)c3cn(C(C)C)c4ncncc34)c2)n(C)n1` [Example 513, 2,5-Dimethyl-2H-pyrazole-3-carboxylic acid [5-(7-isopropyl-7H-pyrrolo[2,3-d]pyrimidine-5-carbonyl)-pyridin-3-yl]-amide] here?
**A.** 1890 nM

**Q.** With `CC(C)(C)n1cc(C(=O)c2cncc(NC(=O)Cc3ccc(F)cc3)c2)c2cncnc21` [Example 546, N-[5-(7-tert-Butyl-7H-pyrrolo[2,3-d]pyrimidine-5-carbonyl)-pyridin-3-yl]-2-(4-fluoro-phenyl)-acetamide] as the molecule, how does the IC50 read?
**A.** 5.34 nM

**Q.** For `CC(C)n1cc(C(=O)c2cncc(NC(=O)Cn3ncc4ncccc43)c2)c2cncnc21` [Example 86, N-{5-[(7-isopropyl-7H-pyrrolo[2,3-d]pyrimidin-5-yl)carbonyl]pyridin-3-yl}-2-(1H-pyrazolo[4,3-b]pyridin-1-yl)acetamide], which IC50 is on record?
**A.** 95.5 nM

**Q.** Which IC50 does the source give for `N#Cc1ccc(CC(=O)Nc2cncc(C(=O)c3cn(C4COC4)c4ncncc34)c2)cc1` [Example 218, 2-(4-cyanophenyl)-N-{5-[(7-oxetan-3-yl-7H-pyrrolo[2,3-d]pyrimidin-5-yl)carbonyl]pyridin-3-yl}acetamide] here?
**A.** 1210 nM

**Q.** With `Cc1cc(C(=O)Nc2cncc(C(=O)c3cn(C(C)C)c4ncncc34)c2)ccn1` [Example 422, N-[5-(7-Isopropyl-7H-pyrrolo[2,3-d]pyrimidine-5-carbonyl)-pyridin-3-yl]-2-methyl-isonicotinamide] as the molecule, how does the IC50 read?
**A.** 451 nM

**Q.** For `CC(C)n1cc(C(=O)c2cncc(NC(=O)Cc3ncccn3)c2)c2cncnc21` [Example 165, N-{5-[(7-isopropyl-7H-pyrrolo[2,3-d]pyrimidin-5-yl)carbonyl]pyridin-3-yl}-2-pyrimidin-2-ylacetamide], which IC50 is on record?
**A.** 3400 nM

**Q.** `CC(C)n1cc(C(=O)c2cncc(NC(=O)Cc3cn4cccnc4n3)c2)c2cncnc21` [Example 143, 2-imidazo[1,2-a]pyrimidin-2-yl-N-{5-[(7-isopropyl-7H-pyrrolo[2,3-d]pyrimidin-5-yl)carbonyl]pyridin-3-yl}acetamide] was tested. Which IC50 did it give?
**A.** 4730 nM

**Q.** How did the IC50 turn out when `C[C@@H](CO)n1cc(C(=O)c2cncc(NC(=O)Cc3nc4ccccc4[nH]3)c2)c2cncnc21` [Example 533, 2-(1H-Benzoimidazol-2-yl)-N-{5-[7-((S)-2-hydroxy-1-methyl-ethyl)-7H-pyrrolo[2,3-d]pyrimidine-5-carbonyl]-pyridin-3-yl}-acetamide] was run?
**A.** 31.3 nM

**Q.** Which IC50 does the source give for `COCC(C)(C)n1cc(C(=O)c2cncc(NC(=O)Cn3cc(C(F)(F)F)cn3)c2)c2cnc(N)nc21` [Example 551, N-{5-[2-Amino-7-(2-methoxy-1,1-dimethyl-ethyl)-7H-pyrrolo[2,3-d]pyrimidine-5-carbonyl]-pyridin-3-yl}-2-(4-trifluoromethyl-pyrazol-1-yl)-acetamide] here?
**A.** 2.78 nM

**Q.** With `Cn1cc(CC(=O)Nc2cncc(C(=O)c3cn(C(C)(C)C)c4ncncc34)c2)cn1` [Example 202, N-{5-[(7-tert-butyl-7H-pyrrolo[2,3-d]pyrimidin-5-yl)carbonyl]pyridin-3-yl}-2-(1-methyl-1H-pyrazol-4-yl)acetamide] as the molecule, how does the IC50 read?
**A.** 412 nM

**Q.** How did the IC50 turn out when `COc1ccc2c(ccn2CC(=O)Nc2cncc(C(=O)c3cn(C(C)C)c4ncncc34)c2)c1` [Example 340, N-{5-[(7-isopropyl-7H-pyrrolo[2,3-d]pyrimidin-5-yl)carbonyl]-pyridin-3-yl}-2-(5-methoxy-1H-indol-1-yl)acetamide] was run?
**A.** 451 nM

**Q.** `CC(C)n1cc(C(=O)c2cncc(NC(=O)c3ccnc4ncsc34)c2)c2cncnc21` [Example 514, Thiazolo[4,5-b]pyridine-7-carboxylic acid [5-(7-isopropyl-7H-pyrrolo[2,3-d]pyrimidine-5-carbonyl)-pyridin-3-yl]-amide] was tested. Which IC50 did it give?
**A.** 9800 nM

**Q.** Which IC50 does the source give for `CC1(n2cc(C(=O)c3cncc(NC(=O)Cc4ccc(Cl)cn4)c3)c3cncnc32)COC1` [Example 310, 2-(5-chloropyridin-2-yl)-N-(5-{[7-(3-methyloxetan-3-yl)-7H-pyrrolo[2,3-d]pyrimidin-5-yl]carbonyl}pyridin-3-yl)acetamide] here?
**A.** 98.4 nM

**Q.** For `CC(C)n1cc(C(=O)c2cncc(NC(=O)Cn3ccc(C(F)(F)F)n3)c2)c2cncnc21` [Example 97, N-{5-[(7-isopropyl-7H-pyrrolo[2,3-d]pyrimidin-5-yl)carbonyl]pyridin-3-yl}-2-[3-(trifluoromethyl)-1H-pyrazol-1-yl]acetamide], which IC50 is on record?
**A.** 4.86 nM

**Q.** With `CC(C)n1cc(C(=O)c2cncc(NC(=O)Cc3ccc4[nH]c(C(F)(F)F)nc4c3)c2)c2cncnc21` [Example 84, N-{5-[(7-isopropyl-7H-pyrrolo[2,3-d]pyrimidin-5-yl)carbonyl]pyridin-3-yl}-2-[2-(trifluoromethyl)-1H-benzimidazol-5-yl]acetamide] as the molecule, how does the IC50 read?
**A.** 2860 nM

**Q.** With `CC(C)n1cc(C(=O)c2cncc(NC(=O)Cc3cccc(CN4CCOCC4)c3)c2)c2cncnc21` [Example 268, N-{5-[(7-isopropyl-7H-pyrrolo[2,3-d]pyrimidin-5-yl)carbonyl]pyridin-3-yl}-2-[3-(morpholin-4-ylmethyl)phenyl]acetamide formate salt] as the molecule, how does the IC50 read?
**A.** 579 nM

**Q.** `CC(C)(C)n1cc(C(=O)c2cncc(NC(=O)Cc3nc4ccccc4[nH]3)c2)c2cnc(N)nc21` [Example 528, N-[5-(2-Amino-7-tert-butyl-7H-pyrrolo[2,3-d]pyrimidine-5-carbonyl)-pyridin-3-yl]-2-(1H-benzoimidazol-2-yl)-acetamide] was tested. Which IC50 did it give?
**A.** 2.25 nM

**Q.** How did the IC50 turn out when `COc1ccc2[nH]c(C(=O)Nc3cncc(C(=O)c4cn(C(C)C)c5ncncc45)c3)nc2c1` [Example 442, 5-Methoxy-1H-benzimidazole-2-carboxylic acid [5-(7-isopropyl-7H-pyrrolo[2,3-d]pyrimidine-5-carbonyl)-pyridin-3-yl]amide] was run?
**A.** 36.6 nM

**Q.** How did the IC50 turn out when `CC(C)n1cc(C(=O)c2cncc(NC(=O)c3ccc(Cl)cc3)c2)c2cncnc21` [Example 344, 4-chloro-N-(5-{[7-(propan-2-yl)-7H-pyrrolo[2,3-d]pyrimidin-5-yl]carbonyl}pyridin-3-yl)benzamide] was run?
**A.** 326 nM

**Q.** With `O=C(Cc1ccc(Cl)cc1)Nc1cncc(C(=O)c2c[nH]c3ncncc23)c1` [Example 308, 2-(4-Chlorophenyl)-N-[5-(7H-pyrrolo[2,3-d]pyrimidin-5-ylcarbonyl)pyridin-3-yl]acetamide] as the molecule, how does the IC50 read?
**A.** 592 nM

**Q.** How did the IC50 turn out when `CC(C)(CO)n1cc(C(=O)c2cncc(NC(=O)Cc3cccc(C(F)(F)F)c3)c2)c2cnc(N)nc21` [Example 256, N-(5-{[2-amino-7-(2-hydroxy-1,1-dimethylethyl)-7H-pyrrolo[2,3-d]pyrimidin-5-yl]carbonyl}pyridin-3-yl)-2-[3-(trifluoromethyl)phenyl]acetamide] was run?
**A.** 1.09 nM

**Q.** `CC(C)n1cc(C(=O)c2cncc(NC(=O)c3ccc(OC(F)(F)F)cc3)c2)c2cncnc21` [Example 346, N-(5-{[7-(propan-2-yl)-7H-pyrrolo[2,3-d]pyrimidin-5-yl]carbonyl}pyridin-3-yl)-4-(trifluoromethoxy)benzamide] was tested. Which IC50 did it give?
**A.** 253 nM

**Q.** How did the IC50 turn out when `CC1(n2cc(C(=O)c3cncc(NC(=O)c4cccc(OC(F)(F)F)c4)c3)c3cncnc32)COC1` [Example 575, N-{5-[7-(3-Methyl-oxetan-3-yl)-7H-pyrrolo[2,3-d]pyrimidine-5-carbonyl]-pyridin-3-yl}-3-trifluoromethoxy-benzamide] was run?
**A.** 3.09 nM

**Q.** Which IC50 does the source give for `CC(C)(CO)n1cc(C(=O)c2cncc(NC(=O)Cc3ccc4cccnc4c3)c2)c2cncnc21` [Example 228, N-(5-{[7-(2-hydroxy-1,1-dimethylethyl)-7H-pyrrolo[2,3-d]pyrimidin-5-yl]carbonyl}pyridin-3-yl)-2-quinolin-7-ylacetamide] here?
**A.** 14.9 nM

**Q.** `CC(C)n1cc(C(=O)c2cncc(NC(=O)Cc3ccc(F)cc3)c2)c2cncnc21` [Example 65, 2-(4-fluorophenyl)-N-{5-[(7-isopropyl-7H-pyrrolo[2,3-d]pyrimidin-5-yl)carbonyl]pyridin-3-yl}acetamide] was tested. Which IC50 did it give?
**A.** 55.6 nM

**Q.** `Cc1cc2nnc(C(=O)Nc3cncc(C(=O)c4cn(C(C)C)c5ncncc45)c3)c(C)n2n1` [Example 498] was tested. Which IC50 did it give?
**A.** 2340 nM

**Q.** With `NC(=O)Cn1cc(C(=O)c2cncc(NC(=O)Cc3ccc(Cl)cc3)c2)c2cncnc21` [Example 303, N-(5-{[7-(2-amino-2-oxoethyl)-7H-pyrrolo[2,3-d]pyrimidin-5-yl]carbonyl}pyridin-3-yl)-2-(4-chlorophenyl)acetamide] as the molecule, how does the IC50 read?
**A.** 1220 nM

**Q.** `CC(C)(CO)n1cc(C(=O)c2cncc(NC(=O)Cc3ccc(C#N)cc3)c2)c2cncnc21` [Example 225, 2-(4-cyanophenyl)-N-(5-{[7-(2-hydroxy-1,1-dimethylethyl)-7H-pyrrolo[2,3-d]pyrimidin-5-yl]carbonyl}pyridin-3-yl)acetamide] was tested. Which IC50 did it give?
**A.** 27.7 nM

**Q.** How did the IC50 turn out when `CC(C)n1cc(C(=O)c2cncc(NC(=O)c3cnco3)c2)c2cncnc21` [Example 390, Oxazole-5-carboxylic acid [5-(7-isopropyl-7H-pyrrolo[2,3-d]pyrimidine-5-carbonyl)-pyridin-3-yl]-amide] was run?
**A.** 9800 nM

**Q.** How did the IC50 turn out when `CC(C)n1cc(C(=O)c2cncc(NC(=O)Cc3ccn4ccnc4c3)c2)c2cncnc21` [Example 85, 2-imidazo[1,2-a]pyridin-7-yl-N-{5-[(7-isopropyl-7H-pyrrolo[2,3-d]pyrimidin-5-yl)carbonyl]pyridin-3-yl}acetamide] was run?
**A.** 70.8 nM

**Q.** `Cn1cc(C(=O)c2cncc(NC(=O)Cc3ccc(OC(F)(F)F)cc3)c2)c2cncnc21` [Example 196, N-{5-[(7-methyl-7H-pyrrolo[2,3-d]pyrimidin-5-yl)carbonyl]yridine-3-yl}-2-[4-(trifluoromethoxy)phenyl]acetamide] was tested. Which IC50 did it give?
**A.** 791 nM

**Q.** `CC(C)n1cc(C(=O)c2cncc(NC(=O)Cn3ncc4cccc(F)c43)c2)c2cncnc21` [Example 107, 2-(7-fluoro-1H-indazol-1-yl)-N-{5-[(7-isopropyl-7H-pyrrolo[2,3-d]pyrimidin-5-yl)carbonyl]pyridin-3-yl}acetamide] was tested. Which IC50 did it give?
**A.** 12.3 nM
